“And” between values parts separate entries of the source, which are not always exact repeats. Equal entries are not always repeated.
What follows are molecules tested against Beta-lactamase TEM (Escherichia coli, UniProt P62593) (assay: Cell Free Inhibition Assay). Details: pH 7; 37 °C.
Beta-lactamase TEM, sequence (P62593 whole entry): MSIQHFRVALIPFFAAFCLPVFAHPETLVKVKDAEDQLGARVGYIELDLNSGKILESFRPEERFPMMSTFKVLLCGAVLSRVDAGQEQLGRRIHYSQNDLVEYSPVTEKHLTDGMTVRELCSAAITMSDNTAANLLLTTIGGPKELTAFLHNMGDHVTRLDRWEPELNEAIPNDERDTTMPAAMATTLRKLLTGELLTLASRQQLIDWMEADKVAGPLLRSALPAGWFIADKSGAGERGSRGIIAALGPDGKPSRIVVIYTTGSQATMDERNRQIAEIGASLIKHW
Experimental: (§1) Assays are performed with beta -lactamases expressed in the pET system (Novagen, San Diego, Calif.) without signal peptides. They contain an N-terminal hexa-Histidine tag that is used for purification on Ni-NTA (Qiagen, Hilden, Germany). The compounds are prepared as 50 mM stocks in DMSO and diluted into buffer P1 (50 mM phosphate, pH 7) to a final concentration of 10% DMSO. All further dilutions are done in P2 (P1 with 10% DMSO). Enzyme and compound dilutions are pre-incubated for 10 min at 37 C. and the reaction is started with the addition of pre-warmed (37 C.) […]. The change in absorption at 490 nm is followed at 37 C. for 10 min with 30 s intervals.
Molecule `CCCC(CO)=C1O[C@@H]2CC(=O)N2C1C(=O)O` (some centres not stated) [US9120808, Example 55] has an IC50 of 118 µM. With `CCCC1(C(=O)O)/C(=C/CO)O[C@@H]2CC(=O)N21` (some centres not stated) [US9120808, Example 56] the IC50 was 17.8 µM.

The molecules below were run against Beta-lactamase (Escherichia coli (strain K12), UniProt P00811) (assay: Cell Free Inhibition Assay). Details: pH 7; 37 °C.
Beta-lactamase, sequence (P00811 whole entry): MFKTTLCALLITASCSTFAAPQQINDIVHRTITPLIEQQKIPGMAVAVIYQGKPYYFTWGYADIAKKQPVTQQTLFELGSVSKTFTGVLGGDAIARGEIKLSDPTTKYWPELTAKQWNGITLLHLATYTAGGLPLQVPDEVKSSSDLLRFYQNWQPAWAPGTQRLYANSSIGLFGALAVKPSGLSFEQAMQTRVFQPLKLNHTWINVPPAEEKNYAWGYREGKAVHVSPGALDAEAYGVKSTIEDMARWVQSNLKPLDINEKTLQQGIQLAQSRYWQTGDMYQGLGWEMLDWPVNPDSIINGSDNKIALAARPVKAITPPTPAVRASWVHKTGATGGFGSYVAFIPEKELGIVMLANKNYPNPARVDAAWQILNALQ
Experimental: as §1
`O=CC=C1O[C@@H]2CC(=O)N2C1(CC=CCO)C(=O)OCc1ccccc1` (single isomer, unassigned) [US9120808, Example 9] was tested, and the IC50 was 115 µM and 14.3 µM. For `O=C(O)C=C1O[C@@H]2CC(=O)N2C1(C/C=C/c1ccccc1)C(=O)OCc1ccccc1` (single isomer, unassigned) [US9120808, Example 28], the IC50 was 6.02 µM and 11.7 µM. `COC(=O)C1(C/C=C/c2ccccc2)C(=CC(=O)O)O[C@@H]2CC(=O)N21` (single isomer, unassigned) [US9120808, Example 36] was tested, and the IC50 was 41.1 µM and 4.19 µM. In the case of `O=C1OC(CI)CC1=C1O[C@@H]2CC(=O)N2C1C(=O)OCc1ccccc1` (single isomer, unassigned) [US9120808, Example 42], the IC50 is reported as 0.285 µM and 0.385 µM. For `C=CCC(C=O)=C1O[C@@H]2CC(=O)N2C1C(=O)OCc1ccccc1` (some centres not stated) [US9120808, Example 1], the IC50 was 10.4 µM. `C=CCC1(C(=O)OCc2ccccc2)C(=CC=O)O[C@@H]2CC(=O)N21` (some centres not stated) [US9120808, Example 2] was tested, and the IC50 was 58.8 µM. `C=CCC(C=O)=C1O[C@@H]2CC(=O)N2C1(CC=C)C(=O)OCc1ccccc1` (some centres not stated) [US9120808, Example 3] gave an IC50 of 95.1 µM. `O=CC(CC=CCO)=C1O[C@@H]2CC(=O)N2C1C(=O)OCc1ccccc1` (some centres not stated) [US9120808, Example 7] gave an IC50 of 5.38 µM. With `CC(=O)OCC=CCC(C=O)=C1O[C@@H]2CC(=O)N2C1C(=O)OCc1ccccc1` (some centres not stated) [US9120808, Example 10] the IC50 was 16 µM. `C=CCC(C=O)=C1O[C@@H]2CC(=O)N2C1C(=O)OC` (some centres not stated) [US9120808, Example 16] showed an IC50 of 0.941 µM. `C=CCC1(C(=O)OC)C(=CC=O)O[C@@H]2CC(=O)N21` (some centres not stated) [US9120808, Example 17] gave an IC50 of 36 µM. Molecule `C=CCC(C(=O)O)=C1O[C@@H]2CC(=O)N2C1C(=O)OCc1ccccc1` (some centres not stated) [US9120808, Example 24] has an IC50 of 4.98 µM. `C=CCC(C(=O)O)=C1O[C@@H]2CC(=O)N2C1C(=O)OC` (some centres not stated) [US9120808, Example 32] gave an IC50 of 2.86 µM. `CC1CC(=C2O[C@@H]3CC(=O)N3C2C(=O)O)C(=O)O1` (some centres not stated) [US9120808, Example 50] gave an IC50 of 27 µM. With `CCCC(C(=O)O)=C1O[C@@H]2CC(=O)N2C1C(=O)O` (some centres not stated) [US9120808, Example 51] the IC50 was 415 µM. `COC(=O)C1C(=C(CCCc2ccccc2)C(=O)O)O[C@@H]2CC(=O)N12` (some centres not stated) [US9120808, Example 53] gave an IC50 of 0.541 µM. With `CCCC(C(=O)O)=C1O[C@@H]2CC(=O)N2C1C(=O)OC` (some centres not stated) [US9120808, Example 54] the IC50 was 3.42 µM. For `COC(=O)C(CCCc1ccccc1)=C1O[C@@H]2CC(=O)N2C1C(=O)OC` (some centres not stated) [US9120808, Example 57], the IC50 was 5.33 µM. In the case of `O=C(O)C(CC=CCN(Cc1ccccc1)C(=O)OCc1ccccc1)=C1O[C@@H]2CC(=O)N2C1C(=O)OCc1ccccc1` (some centres not stated) [US9120808, Example 58], the IC50 is reported as 4.51 µM. In the case of `O=C(OCc1ccccc1)C1C(=C2COC(CI)C2)O[C@@H]2CC(=O)N12` (some centres not stated) [US9120808, Example 59], the IC50 is reported as 6.45 µM.
